ChEMBL document CHEMBL2176881, “Development of N-[4-[6-(isopropylamino)pyrimidin-4-yl]-1,3-thiazol-2-yl]-N-methyl-4-[11C]methylbenzamide for positron emission tomography imaging of metabotropic glutamate 1 receptor in monkey brain” (J Med Chem, 2012)

How the values were obtained:
Lung [1] = assay: Biodistribution in ddY mouse lung at 4.8 MBq/0.1 mL after 60 mins by gamma counting; assay type: ADME, organism-based; settings: in vivo, 1 h
Mus musculus [2] = species on record: Mus musculus; assay: Biodistribution in ddY mouse testis at 4.8 MBq/0.1 mL after 1 min by gamma counting; assay type: ADME, organism-based; settings: in vivo
Brain [3] = assay: Biodistribution in ddY mouse brain at 4.8 MBq/0.1 mL after 1 min by gamma counting; assay type: ADME, organism-based; settings: in vivo
Heart = assay: Biodistribution in ddY mouse heart at 4.8 MBq/0.1 mL after 60 mins by gamma counting; assay type: ADME, organism-based; settings: in vivo, 1 h
[4] = Drug uptake in monkey cingulate cortex at 185 to 220 MBq, iv after 20 mins by PET analysis; assay type: ADME, organism-based, Macaca mulatta; settings: rhesus monkey, in vivo
[5] = Drug uptake in monkey putamen at 185 to 220 MBq, iv after 10 mins by PET analysis; assay type: ADME, organism-based, Macaca mulatta; settings: rhesus monkey, in vivo
Pancreas [6] = assay: Biodistribution in ddY mouse pancreas at 4.8 MBq/0.1 mL after 15 mins by gamma countingeas; assay type: ADME, organism-based; settings: in vivo, 0.25 h
Mus musculus [7] = species on record: Mus musculus; assay: Biodistribution in ddY mouse small intestine at 4.8 MBq/0.1 mL after 15 mins by gamma counting; assay type: ADME, organism-based; settings: in vivo, 0.25 h
Muscle tissue = assay: Biodistribution in ddY mouse muscle at 4.8 MBq/0.1 mL after 15 mins by gamma counting; assay type: ADME, organism-based; settings: in vivo, 0.25 h
Pancreas [8] = assay: Biodistribution in ddY mouse pancreas at 4.8 MBq/0.1 mL after 60 mins by gamma countingeas; assay type: ADME, organism-based; settings: in vivo, 1 h
Mus musculus [9] = species on record: Mus musculus; assay: Biodistribution in ddY mouse testis at 4.8 MBq/0.1 mL after 60 mins by gamma counting; assay type: ADME, organism-based; settings: in vivo, 1 h
Kidney [10] = assay: Biodistribution in ddY mouse kidney at 4.8 MBq/0.1 mL after 5 mins by gamma counting; assay type: ADME, organism-based; settings: in vivo
Kidney [11] = assay: Biodistribution in ddY mouse kidney at 4.8 MBq/0.1 mL after 1 min by gamma counting; assay type: ADME, organism-based; settings: in vivo
Kidney [12] = assay: Biodistribution in ddY mouse kidney at 4.8 MBq/0.1 mL after 30 mins by gamma counting; assay type: ADME, organism-based; settings: in vivo, 0.5 h
[13] = Metabolic stability in Sprague-Dawley plasma assessed as unchanged drug level at 37 MBq/0.1 mL, iv after 30 mins; assay type: ADME, organism-based; settings: rat, read-out: Stability
[14] = Metabolic stability in Sprague-Dawley plasma assessed as unchanged drug level at 37 MBq/0.1 mL, iv after 5 mins; assay type: ADME, organism-based; settings: rat, read-out: Stability
Mus musculus [15] = species on record: Mus musculus; assay: Biodistribution in ddY mouse large intestine at 4.8 MBq/0.1 mL after 15 mins by gamma counting; assay type: ADME, organism-based; settings: in vivo, 0.25 h
[16] = Metabolic stability in monkey plasma assessed as unchanged drug level at 185 MBq/0.1 mL, iv after 60 mins; assay type: ADME, organism-based, Macaca mulatta; settings: rhesus monkey, read-out: Stability
[17] = Drug uptake in monkey cerebellum at 185 to 220 MBq, iv after 20 mins by PET analysis; assay type: ADME, organism-based, Macaca mulatta; settings: rhesus monkey, in vivo
Blood [18] = assay: Biodistribution in ddY mouse blood at 4.8 MBq/0.1 mL after 15 mins by gamma counting; assay type: ADME, organism-based; settings: in vivo, 0.25 h
Kidney [19] = assay: Biodistribution in ddY mouse kidney at 4.8 MBq/0.1 mL after 15 mins by gamma counting; assay type: ADME, organism-based; settings: in vivo, 0.25 h
Lung [20] = assay: Biodistribution in ddY mouse lung at 4.8 MBq/0.1 mL after 5 mins by gamma counting; assay type: ADME, organism-based; settings: in vivo
Mus musculus [21] = species on record: Mus musculus; assay: Biodistribution in ddY mouse large intestine at 4.8 MBq/0.1 mL after 1 min by gamma counting; assay type: ADME, organism-based; settings: in vivo
Blood [22] = assay: Biodistribution in ddY mouse blood at 4.8 MBq/0.1 mL after 1 min by gamma counting; assay type: ADME, organism-based; settings: in vivo
Pancreas [23] = assay: Biodistribution in ddY mouse pancreas at 4.8 MBq/0.1 mL after 5 mins by gamma countingeas; assay type: ADME, organism-based; settings: in vivo
Spleen [24] = assay: Biodistribution in ddY mouse spleen at 4.8 MBq/0.1 mL after 60 mins by gamma counting; assay type: ADME, organism-based; settings: in vivo, 1 h
[25] = Drug uptake in monkey pons at 185 to 220 MBq, iv after 10 to 60 mins by PET analysis; assay type: ADME, organism-based, Macaca mulatta; settings: rhesus monkey, in vivo
Blood [26] = assay: Biodistribution in ddY mouse blood at 4.8 MBq/0.1 mL after 30 mins by gamma counting; assay type: ADME, organism-based; settings: in vivo, 0.5 h
[27] = Metabolic stability in monkey plasma assessed as unchanged drug level at 185 MBq/0.1 mL, iv after 5 mins; assay type: ADME, organism-based, Macaca mulatta; settings: rhesus monkey, read-out: Stability
Spleen [28] = assay: Biodistribution in ddY mouse spleen at 4.8 MBq/0.1 mL after 90 mins by gamma counting; assay type: ADME, organism-based; settings: in vivo, 1.5 h
[29] = Drug uptake in monkey pons assessed as distribution volume ratio at 185 to 220 MBq, iv after 10 to 90 mins by PET analysis; assay type: ADME, organism-based, Macaca mulatta; settings: rhesus monkey, in vivo
Hippocampus = assay: Drug uptake in monkey hippocampus at 185 to 220 MBq, iv after 10 mins by PET analysis; assay type: ADME, organism-based, Macaca mulatta; settings: rhesus monkey, in vivo
Blood [30] = assay: Biodistribution in ddY mouse blood at 4.8 MBq/0.1 mL after 90 mins by gamma counting; assay type: ADME, organism-based; settings: in vivo, 1.5 h
Lung [31] = assay: Biodistribution in ddY mouse lung at 4.8 MBq/0.1 mL after 15 mins by gamma counting; assay type: ADME, organism-based; settings: in vivo, 0.25 h
Brain [32] = assay: Drug uptake in monkey brain at 185 to 220 MBq, iv after 10 to 60 mins by PET analysis in presence of unlabeled 4-(6-chloropyrimidin-4-yl)-N-methylthiazol-2-amine; assay type: ADME, organism-based, Macaca mulatta; settings: rhesus monkey, in vivo
Mus musculus [33] = species on record: Mus musculus; assay: Biodistribution in ddY mouse testis at 4.8 MBq/0.1 mL after 30 mins by gamma counting; assay type: ADME, organism-based; settings: in vivo, 0.5 h
[34] = Metabolic stability in monkey plasma assessed as unchanged drug level at 185 MBq/0.1 mL, iv after 15 mins; assay type: ADME, organism-based, Macaca mulatta; settings: rhesus monkey, read-out: Stability
[35] = Metabolic stability in Sprague-Dawley brain assessed as unchanged drug level at 37 MBq/0.1 mL, iv after 60 mins; assay type: ADME, organism-based; settings: rat, read-out: Stability
Blood [36] = assay: Biodistribution in ddY mouse blood at 4.8 MBq/0.1 mL after 5 mins by gamma counting; assay type: ADME, organism-based; settings: in vivo
[37] = Drug uptake in monkey cingulate cortex at 185 to 220 MBq, iv after 10 to 60 mins by PET analysis; assay type: ADME, organism-based, Macaca mulatta; settings: rhesus monkey, in vivo
Brain [38] = assay: Biodistribution in ddY mouse brain at 4.8 MBq/0.1 mL after 15 mins by gamma counting; assay type: ADME, organism-based; settings: in vivo, 0.25 h
Spleen [39] = assay: Biodistribution in ddY mouse spleen at 4.8 MBq/0.1 mL after 5 mins by gamma counting; assay type: ADME, organism-based; settings: in vivo
Mus musculus [40] = species on record: Mus musculus; assay: Biodistribution in ddY mouse small intestine at 4.8 MBq/0.1 mL after 30 mins by gamma counting; assay type: ADME, organism-based; settings: in vivo, 0.5 h
[41] = Metabolic stability in Sprague-Dawley plasma assessed as unchanged drug level at 37 MBq/0.1 mL, iv after 60 mins; assay type: ADME, organism-based; settings: rat, read-out: Stability
Pancreas [42] = assay: Biodistribution in ddY mouse pancreas at 4.8 MBq/0.1 mL after 90 mins by gamma countingeas; assay type: ADME, organism-based; settings: in vivo, 1.5 h
[43] = Metabolic stability in Sprague-Dawley brain assessed as unchanged drug level at 37 MBq/0.1 mL, iv after 30 mins; assay type: ADME, organism-based; settings: rat, read-out: Stability
[44] = Drug uptake in monkey thalamus assessed as distribution volume ratio at 185 to 220 MBq, iv after 10 to 90 mins by PET analysis; assay type: ADME, organism-based, Macaca mulatta; settings: rhesus monkey, in vivo
[45] = Metabolic stability in Sprague-Dawley brain assessed as unchanged drug level at 37 MBq/0.1 mL, iv after 15 mins; assay type: ADME, organism-based; settings: rat, read-out: Stability
Liver = assay: Biodistribution in ddY mouse liver at 4.8 MBq/0.1 mL after 30 mins by gamma counting; assay type: ADME, organism-based; settings: in vivo, 0.5 h

Q: For `CC(C)Nc1cc(-c2csc(N(C)C(=O)c3ccc([14CH3])cc3)n2)ncn1`, which Drug uptake (Lung [1]) is on record?
A: 0.2 % ID/g

Q: And the Drug uptake (Mus musculus [2])?
A: 1.07 % ID/g

Q: And the Drug uptake (Brain [3])?
A: 2.19 % ID/g

Q: And the Drug uptake (Heart)?
A: 0.06 % ID/g

Q: And the SUV [4]?
A: 0.9

Q: And the Drug uptake [5]?
A: Active

Q: And the Drug uptake (Pancreas [6])?
A: 0.3 % ID/g

Q: And the Drug uptake (Mus musculus [7])?
A: 41.52 % ID/g

Q: And the Drug uptake (Muscle tissue)?
A: 0.23 % ID/g

Q: And the Drug uptake (Pancreas [8])?
A: 0.03 % ID/g

Q: What about the Drug uptake (Mus musculus [9]) of the same molecule?
A: 0.13 % ID/g

Q: And the Drug uptake (Kidney [10])?
A: 4.41 % ID/g

Q: And the Drug uptake (Kidney [11])?
A: 11.12 % ID/g

Q: And the Drug uptake (Kidney [12])?
A: 0.56 % ID/g

Q: What about the remaining at 0.5 h [13] of the same molecule?
A: 39%

Q: What about the remaining at 5 min [14] of the same molecule?
A: 67.9%

Q: What about the Drug uptake (Mus musculus [15]) of the same molecule?
A: 1.2 % ID/g

Q: And the remaining at 1 h [16]?
A: 28.4%

Q: What about the SUV [17] of the same molecule?
A: 1.2

Q: And the Drug uptake (Blood [18])?
A: 0.37 % ID/g

Q: And the Drug uptake (Kidney [19])?
A: 1.32 % ID/g

Q: What about the Drug uptake (Lung [20]) of the same molecule?
A: 2.56 % ID/g

Q: What about the Drug uptake (Mus musculus [21]) of the same molecule?
A: 1.28 % ID/g

Q: And the Drug uptake (Blood [22])?
A: 3.09 % ID/g

Q: What about the Drug uptake (Pancreas [23]) of the same molecule?
A: 1.23 % ID/g

Q: And the Drug uptake (Spleen [24])?
A: 0.02 % ID/g

Q: What about the Drug uptake [25] of the same molecule?
A: Active

Q: And the Drug uptake (Blood [26])?
A: 0.14 % ID/g

Q: And the remaining at 5 min [27]?
A: 70.2%

Q: And the Drug uptake (Spleen [28])?
A: 0.02 % ID/g

Q: What about the Ratio [29] of the same molecule?
A: 1

Q: What about the Drug uptake (Hippocampus) of the same molecule?
A: Active

Q: What about the Drug uptake (Blood [30]) of the same molecule?
A: 0.02 % ID/g

Q: And the Drug uptake (Lung [31])?
A: 0.86 % ID/g

Q: And the Drug uptake (Brain [32])?
A: Not Active

Q: And the Drug uptake (Mus musculus [33])?
A: 0.22 % ID/g

Q: And the remaining at 0.25 h [34]?
A: 43.1%

Q: What about the remaining at 1 h [35] of the same molecule?
A: 98.2%

Q: And the Drug uptake (Blood [36])?
A: 1.27 % ID/g

Q: And the Drug uptake [37]?
A: Active

Q: And the Drug uptake (Brain [38])?
A: 1.99 % ID/g

Q: And the Drug uptake (Spleen [39])?
A: 0.93 % ID/g

Q: And the Drug uptake (Mus musculus [40])?
A: 16.53 % ID/g

Q: And the remaining at 1 h [41]?
A: 33.9%

Q: What about the Drug uptake (Pancreas [42]) of the same molecule?
A: 0.04 % ID/g

Q: What about the remaining at 0.5 h [43] of the same molecule?
A: 97%

Q: And the Ratio [44]?
A: 2

Q: And the remaining at 0.25 h [45]?
A: 95.2%

Q: What about the Drug uptake (Liver) of the same molecule?
A: 1.43 % ID/g
